Laboratory results published in PMC8073907, “Peptide targeting of lysophosphatidylinositol-sensing GPR55 for osteoclastogenesis tuning” (Cell Communication and Signaling : CCS, 2021).

Columns and labels:
[1] = system: GPR55-silenced HeLa cells; assay: LPI-induced ERK1/2 and p38 phosphorylation in shGPR55-HeLa clones (Western blot); format: cell-based, human
Description: For stable interference of GPR55, HeLa cells were plated at 1.5 × 10^5 cells/well in six-well plates in growth medium without antibiotics, and 24 h later, the cells were transfected with 1.7 µg/well OmicsLink short hairpin (sh)RNA expression clone CSHCTR001-CU6 (shCTRL) or clone HSH022476-3-CU6 (shGPR55) from GeneCopoeia (Rockville, MD, USA), using Lipofectamine 2000, according the manufacturer instructions. Forty-eight hours after transfection, HeLa clones stably expressing shRNAs were selected in growth medium containing 0.3 µg/mL puromycin. The efficiency of interference was monitored by real-time PCR using the primers listed in the Additional file 1: Table S1. HPRT1 was followed as a housekeeping gene.
(§1) Twenty-four hours after transfection (HEK293T, HeLa cells or clones) or 72 h after interference (RAW264.7 cells), the cells were washed twice with HBSS^++, serum deprived (HEK293T cells for 4 h in DMEM; HeLa cells and clones for 2 h in MEM plus 2 mM glutamine and 25 mM HEPES; RAW264.7 cells for 2 h in DMEM), washed once again with HBSS^++, incubated in stimulation buffer (HBSS^++ with 10 mM HEPES, 0.4% faf-BSA for HEK293T cells; HBSS^++ with 25 mM HEPES and 0.01% faf-BSA for HeLa cells, clones, and RAW264.7 cells) in the absence or presence of stimuli, at 37 °C for the indicated times. Incubations were terminated by washing the cells twice with cold HBSS^++, and the analyses were performed as reported below.
Cell lysates were obtained by scraping the cells into phospho-lysis buffer: 50 mM Tris–HCl, pH 7.5, 100 mM NaCl, 5 mM EDTA, 1% Triton X-100, 50 mM NaF, 40 mM β-glycerophosphate, 200 µM sodium orthovanadate, plus protease and phosphatase inhibitors (Roche). […]
(§2) Protein lysates were subjected to SDS-PAGE, and after electrophoresis, the proteins were transferred to a nitrocellulose membrane (PerkinElmer Life Science, Boston, MA, USA). […] The membranes were then washed twice with T-TBS and once with TBS for 5 min, and the signals were detected by ECL (Amersham Pharmacia, Piscataway, NJ, USA). […]

[2] = system: HA-GPR55 in HEK293T cells; assay: LPI-induced ERK1/2 activation in GPR55-transfected HEK293T cells; format: cell-based, human; conditions: 10 µM LPI
Description: The construct of haemagglutinin (HA)-tagged human GPR55 in pcDNA3 (HA-GPR55) was a gift from Prof. K. Mackie, Indiana University, Bloomington, IN, USA [39], while the construct ss-3 × HA-GPR55 in pcDNA3.1 (ssGPR55) with a triple HA tag at the N-terminus and an optimised signal sequence (ss, derived from amino acids 1–33 of the human growth hormone: […]) for efficient surface expression was from Prof. A. Irving, Dundee University, UK [40]. For both constructs, mutations were introduced by site-directed mutagenesis using QuickChange kits (Stratagene, La Jolla, CA, USA), according to the manufacturer instructions. The primers for the K80A mutation were 5′-[…]-3′ and 5′-[…]-3′ (Tm, 70.6 °C), and for Q87A were 5′-[…]-3′ and 5′-[…]-3′ (Tm, 73.1 °C).
For GPR55 overexpression, HEK293T cells were plated in their growth medium without antibiotics at 2.6 × 10^5 cells/well in 12-well plates, and 24 h later, the cells were transfected with 1 µg cDNA/well using Lipofectamine 2000, according to the manufacturer instructions. The pcDNA3 empty vector or that coding for human HA-GPR55 wild-type or its mutants HA-GPR55-K80A and HA-GPR55-Q87A were used.
as §1, with “Incubations were terminated by washing the cells twice with cold HBSS^++, and the analyses were performed as reported below.” left out
as §2

lysophosphatidylinositol [LPI]
LPI response of empty vector (pcDNA3.1) transfected clones ([1]; 10 µM 18:0 LPI): did not respond to LPI addition | ERK1/2 and p38 activation ([1]; 10 µM soybean LPI, or 1 µM ionomycin 5 min): did not show any ERK1/2 and p38 activation | activation kinetics of ERK1/2 ([2]; HEK293T with HA-GPR55 wild-type, K80A or Q87A): comparable activation kinetics of ERK1/2 in all of the transfectants | ERK1/2 phosphorylation, GPR55-transfected and empty-vector-transfected cells ([2]; HEK293T): increased phosphorylation of ERK1/2
